Results taken from patent publication US20250368648A1, “MULTI-CYCLIC IRAK AND FLT3 INHIBITING COMPOUNDS AND USES THEREOF” (CHILDREN'S HOSPITAL MEDICAL CENTER, priority 2022, published 2025).

Key:
THP1 cells = assay: Combination drug screening, Cell Titer Glo, THP1 cells; details: THP1 cells; for Excess HSA Score: sum score, 10 × 10 dataset, 48 hours;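 on all read-outs here: luminescence read out in 1536-well plates seeded with 500 THP1 cells per well, each drug spanning a 10-point concentration range in the combination matrix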
Source text: A smaller concentration indicates higher potency to synergize with Venetoclax. […] The numbers in each cell represent the % response (left) or the Delta Bliss score (right) at each given concentration combination.
A smaller concentration indicates higher potency to synergize with azacitidine. […] The numbers in each cell represent the % response (left) or the Delta Bliss score (right) at each given concentration combination.
(§1) This is a cell line that has the FLT3 ITD mutation but also the FLT3 D835Y kinase domain mutation. […] Excess HSA is a measure of synergy vs. additivity or antagonism, wherein a negative Excess HSA value is indicative of synergy.
Briefly, 10 nL of compounds were acoustically dispensed into 1536-well white polystyrene tissue culture-treated plates with an Echo 550 acoustic liquid handler (Labcyte). MOLM14 (D835Y) or THP1 cells were then added to compound-containing plates at a density of 500-cells/well in 5 μL of medium. A 10-point custom concentration range was used for all listed drugs. […] 48h post compound addition, 3 μL of Cell Titer Glo (Promega) were added to each well and plates were incubated at room temperature for 15 minutes with the stainless-steel lid in place. Luminescence readings were taken using a Viewlux imager (PerkinElmer) with a 2 second exposure time per plate.

MOLM14 (D835Y) cells = assay: Combination drug screening, Cell Titer Glo, MOLM14 (D835Y) cells; details: MOLM14(D835Y) cells; for Excess HSA Score: sum score, listed as compound in combination with Compound 106, 48 hours;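 on all read-outs here: MOLM14 cells with FLT3 ITD plus D835Y, 500 per well in 1536-well plates, 10-point dose ranges, luminescent viability after 48 h, negative Excess HSA indicates synergy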
Procedure: Briefly, 10 nL of the compound shown below was acoustically dispensed into 1536-well white polystyrene tissue culture-treated plates with an Echo 550 acoustic liquid handler (Labcyte). Cells were then added to compound-containing plate at a density of 500-cells/well in 5 μL of medium. A 6-point or 10-point custom concentration range was used for all listed drugs. Plates were incubated for 48 hours at standard incubator conditions covered by a stainless steel gasketed lid to prevent evaporation. 48h post compound addition, 3 μL of Cell Titer Glo (Promega) were added to each well and plates were incubated at room temperature for 15 minutes with the stainless-steel lid in place. Luminescence readings were taken using a Viewlux imager (PerkinElmer) with a 2 second exposure time per plate.
A smaller concentration indicates higher potency to synergize with Venetoclax.
A smaller concentration indicates higher potency to synergize with azacitidine.
as §1

[1] = listed as compound in combination with CG-806 (a FLT3/BTK inhibitor)
[2] = listed as compound in combination with Compound 45a
[3] = listed as compound in combination with Compound 46a
[4] = listed as compound in combination with Compound 47a
[5] = listed as compound in combination with Compound 48a
[6] = listed as compound in combination with Compound 102
[7] = listed as compound in combination with Compound 106
[8] = listed as compound in combination with Gilteritinib (a FLT3/AXL inhibitor)
[9] = listed as compound in combination with PF-06650833 (an IRAK4 selective inhibitor)
[10] = listed as compound in combination with Quizartinib (a FLT3/Kit/PDGFRa inhibitor)
[11] = listed as compound in combination with emavusertib (CA-4948) (a FLT3/IRAK4 inhibitor)
[12] = combination therapy of CG-806 (a FLT3/BTK inhibitor) and the named additional compound, 110 × 10 dataset
[13] = combination therapy of Compound 45a and the named additional compound, 110 × 10 dataset
[14] = combination therapy of Compound 46a and the named additional compound, 110 × 10 dataset
[15] = combination therapy of Compound 47a and the named additional compound, 110 × 10 dataset
[16] = combination therapy of Compound 48a and the named additional compound, 110 × 10 dataset
[17] = combination therapy of Compound 102 and the named additional compound, 10 × 10 dataset
[18] = combination therapy of Gilteritinib (a FLT3/AXL inhibitor) and the named additional compound, 110 × 10 dataset
[19] = combination therapy of PF-06650833 (an IRAK4 selective inhibitor) and the named additional compound, 110 × 10 dataset
[20] = combination therapy of Quizartinib (a FLT3/Kit/PDGFRa inhibitor) and the named additional compound, 110 × 10 dataset
[21] = combination therapy of emavusertib (CA-4948) (a FLT3/IRAK4 inhibitor) and the named additional compound, 110 × 10 dataset

SMILES | Excess HSA Score (THP1 cells; [1]) | Excess HSA Score (THP1 cells; [2]) | Excess HSA Score (THP1 cells; [3]) | Excess HSA Score (THP1 cells; [4]) | Excess HSA Score (THP1 cells; [5]) | Excess HSA Score (THP1 cells; [6]) | Excess HSA Score (THP1 cells; [7]) | Excess HSA Score (THP1 cells; [8]) | Excess HSA Score (THP1 cells; [9]) | Excess HSA Score (THP1 cells; [10]) | Excess HSA Score (THP1 cells; [11]) | Sum Excess HSA Score (MOLM14 (D835Y) cells; [12]) | Sum Excess HSA Score (MOLM14 (D835Y) cells; [13]) | Sum Excess HSA Score (MOLM14 (D835Y) cells; [14]) | Sum Excess HSA Score (MOLM14 (D835Y) cells; [15]) | Sum Excess HSA Score (MOLM14 (D835Y) cells; [16]) | Sum Excess HSA Score (MOLM14 (D835Y) cells; [17]) | Sum Excess HSA Score (MOLM14 (D835Y) cells; [18]) | Sum Excess HSA Score (MOLM14 (D835Y) cells; [19]) | Sum Excess HSA Score (MOLM14 (D835Y) cells; [20]) | other results
CC1(C)CCC(CN2CCN(c3ccc(C(=O)NS(=O)(=O)c4ccc(NCC5CCOCC5)c([N+](=O)[O-])c4)c(Oc4cnc5[nH]ccc5c4)c3)CC2)=C(c2ccc(Cl)cc2)C1 [Venetoclax (ABT-199), Venetoclax] | −1431.1287 | −1070 | −1405 | −1419 | −628.4379 | −1775 | −1478 | −1448 | −429.3 | −216 | −526.5 | −751 | −1552 | −1667 | −1849 | −1280.6361 | −966.5606 | −1406 | −1578 | −1656 | Comments (THP1 cells; combination with CG-806): Synergistic (a negative Excess HSA value is indicative of synergy); Comments (THP1 cells; combination with Compound 45a): Synergistic (a negative Excess HSA value is indicative of synergy); Comments (THP1 cells; combination with Compound 46a): Synergistic (a negative Excess HSA value is indicative of synergy); Comments (THP1 cells; combination with Compound 47a): Synergistic (a negative Excess HSA value is indicative of synergy); Comments (THP1 cells; combination with Compound 102): Synergistic (a negative Excess HSA value is indicative of synergy); Comments (THP1 cells; combination with Compound 106): Synergistic (a negative Excess HSA value is indicative of synergy); Comments (THP1 cells; combination with Gilteritinib): Synergistic (a negative Excess HSA value is indicative of synergy); Comments (synergistic / antagonistic) (MOLM14 (D835Y) cells; [13]): Synergistic (a negative Excess HSA value is indicative of synergy); Comments (synergistic / antagonistic) (MOLM14 (D835Y) cells; [14]): Synergistic (a negative Excess HSA value is indicative of synergy); Comments (synergistic / antagonistic) (MOLM14 (D835Y) cells; [15]): Synergistic (a negative Excess HSA value is indicative of synergy); Comments (synergistic / antagonistic) (MOLM14 (D835Y) cells; [16]): Synergistic (a negative Excess HSA value is indicative of synergy); Comments (synergistic / antagonistic) (MOLM14 (D835Y) cells; [17]): Synergistic (a negative Excess HSA value is indicative of synergy); Comments (synergistic / antagonistic) (MOLM14 (D835Y) cells; [18]): Synergistic (a negative Excess HSA value is indicative of synergy); Comments (synergistic / antagonistic) (MOLM14 (D835Y) cells; [19]): Synergistic (a negative Excess HSA value is indicative of synergy); Comments (synergistic / antagonistic) (MOLM14 (D835Y) cells; [20]): Synergistic (a negative Excess HSA value is indicative of synergy); Comments (synergistic / antagonistic) (MOLM14 (D835Y) cells; [21]): Synergistic (a negative Excess HSA value is indicative of synergy); Sum Excess HSA Score (MOLM14 (D835Y) cells; [21]): −1038; Comments (MOLM14 (D835Y) cells; combination with Compound 106): Synergistic (a negative Excess HSA value is indicative of synergy); Excess HSA Score (MOLM14 (D835Y) cells; 10 × 10 dataset): −1540
C[C@@H]1OCC2(CCN(c3cnc(Sc4ccnc(N)c4Cl)c(N)n3)CC2)[C@@H]1N [TNO-155] | −198.4 | 64.74 | 591.7 | 207 | −3.87 | 485.0784 | −22.86 | 394.2 | −194.1 | 587.7 | 527.1 | −753.6 | −1028 | −1041.6332 | −1163 | −1024 | −510.7 | −895.7 | −773.7 | −1091 | Sum Excess HSA Score (MOLM14 (D835Y) cells; [21]): −470.2; Excess HSA Score (MOLM14 (D835Y) cells; 10 × 10 dataset): −943.9
COCC1(CO)C(=O)C2CCN1CC2 (centres unmarked) [Eprenetapopt/APR-246, APR-246 (Eprenetapopt)] | 300.5 | −629.2 | 603.9 | −14.7 | −33.1 | 171.5 | 268 | 365.9 | −225.6 | 437.691 | 482.6 | −271.7 | 284.5 | −183.2 | 366.1 | −140.8 | −55.14 | 647.6 | −566 | −652.9 | Sum Excess HSA Score (MOLM14 (D835Y) cells; [21]): 504.1; Excess HSA Score (MOLM14 (D835Y) cells; 10 × 10 dataset): −43.15
COc1cc(F)ccc1-c1cc(Nc2cc(CS(C)(=N)=O)ccn2)ncc1F (single isomer, unassigned; (+)) [(+)-BAY-1251152, BAY1251152] | −199.4 | −860.7 | −263.4 | −21.17 | 97 | −265.1 | −427.1 | −656.6 | −758.9 | 454.7 | −51.35 | 1704 | −157.4 | −133.4976 | −727.7 | −215.2 | −20.6 | 362.2497 | −386 | −511.9 | Comments (THP1 cells; combination with PF-06650833): Synergistic (a negative Excess HSA value is indicative of synergy); Sum Excess HSA Score (MOLM14 (D835Y) cells; [21]): 274; Excess HSA Score (MOLM14 (D835Y) cells; 10 × 10 dataset): −865.6
CC(C)[C@@H](CS(=O)(=O)C(C)C)N1C(=O)[C@@](C)(CC(=O)O)C[C@H](c2cccc(Cl)c2)[C@H]1c1ccc(Cl)cc1 [AMG-232, navtemadlin] | 917.1 | 441 | 229.7 | 364.2 | 420.6 | −171.2 | 394.3 | 24.49 | −179 | −91.44 | 125.5 | −536.7 | −165.5 | −654.7 | −325.2 | 224.1 | −197.3 | −113 | −1066 | −1109 | Sum Excess HSA Score (MOLM14 (D835Y) cells; [21]): −373.7; Excess HSA Score (MOLM14 (D835Y) cells; 10 × 10 dataset): −640.2
